The values that follow are results of earlier work, collected in US20250120985A1, “METHOD OF TREATING DIABETIC MACULAR EDEMA” (Oculis Operations Sàrl, priority 2023, published 2025).

For the data set the following is noted: 25° C.

The structures appear in SMILES notation. In brackets after ≈: the same amount, converted by molar mass.

For the compound `OC[C@H]1O[C@@H]2O[C@H]3[C@H](O)[C@@H](O)[C@@H](O[C@H]4[C@H](O)[C@@H](O)[C@@H](O[C@H]5[C@H](O)[C@@H](O)[C@@H](O[C@H]6[C@H](O)[C@@H](O)[C@@H](O[C@H]7[C@H](O)[C@@H](O)[C@@H](O[C@H]8[C@H](O)[C@@H](O)[C@@H](O[C@H]9[C@H](O)[C@@H](O)[C@@H](O[C@H]1[C@H](O)[C@H]2O)O[C@@H]9CO)O[C@@H]8CO)O[C@@H]7CO)O[C@@H]6CO)O[C@@H]5CO)O[C@@H]4CO)O[C@@H]3CO` [γ-cyclodextrin], the “solubility in pure water” value is 249.2 ± 0.2 mg/mL (≈ 192 mM).
With `OC[C@H]1O[C@@H]2O[C@H]3[C@H](O)[C@@H](O)[C@@H](O[C@H]4[C@H](O)[C@@H](O)[C@@H](O[C@H]5[C@H](O)[C@@H](O)[C@@H](O[C@H]6[C@H](O)[C@@H](O)[C@@H](O[C@H]7[C@H](O)[C@@H](O)[C@@H](O[C@H]1[C@H](O)[C@H]2O)O[C@@H]7CO)O[C@@H]6CO)O[C@@H]5CO)O[C@@H]4CO)O[C@@H]3CO` [α-cyclodextrin], the “solubility in pure water” value is 129.5 ± 0.7 mg/mL (≈ 133 mM).
